From PMC7106896, “Synthesis and biological evaluation of 2-(4-methylsulfonyl phenyl) indole derivatives: multi-target compounds with dual antimicrobial and anti-inflammatory activities” (BMC Chemistry, 2020)
Converted amounts (≈) assume the structure as drawn. “And” between values parts separate entries of the source, which are not always exact repeats. Equal values may be shown once.

Legend:
[1] = system: C. albicans; experiment: Minimal inhibitory concentration measurement; assay type: cell-based; settings: Candida albicans; read-out: MIC Ca (C. albicans)
[2] = system: C. neoformans var. grubii; experiment: Minimal inhibitory concentration measurement; assay type: cell-based; settings: Cryptococcus neoformans; read-out: MIC Cn (C. neoformans var. grubii)
[3] = system: MRSA; experiment: Minimal inhibitory concentration measurement; assay type: cell-based; settings: Staphylococcus aureus, read-out: MIC Sa (MRSA)
[4] = system: E. coli; experiment: Minimal inhibitory concentration measurement; assay type: cell-based; settings: Escherichia coli; read-out: MIC Ec (E. coli)
[5] = system: P. aeruginosa; experiment: Minimal inhibitory concentration measurement; assay type: cell-based; settings: Pseudomonas aeruginosa; read-out: MIC Pa (P. aeruginosa)
[6] = system: A. baumannii; experiment: Minimal inhibitory concentration measurement; assay type: cell-based; settings: Acinetobacter baumannii; read-out: MIC Ab (A. baumannii)
[7] = system: Acinetobacter baumannii (ATCC 19606); experiment: Antimicrobial screening (CO-ADD), growth inhibition at single concentration; assay type: cell-based; settings: ATCC19606, at 32 µg/mL concentration, read-out: growth inhibition % Ab (A. baumannii)
Method: (§1) The antimicrobial study was performed by CO-ADD (The Community for Antimicrobial Drug Discovery), funded by the Wellcome Trust (UK) and The University of Queensland (Australia). Evaluation of all synthesized compounds for their antimicrobial activities was done against five pathogenic bacteria, methicillin-resistant Staphylococcus aureus (ATCC 43300) as Gram-positive bacteria, Escherichia coli (ATCC 25922), Klebsiella pneumonia (ATCC 700603), Acinetobacter baumannii (ATCC 19606) and Pseudomonas aeruginosa (ATCC 27853) as Gram-negative bacteria and antifungal activity against two pathogenic fungal strains Candida albicans (ATCC 90028) and Cryptococcus neoformans var. grubii (H99; ATCC 208821) (Table 1).

[8] = system: Escherichia coli (ATCC 25922); experiment: as above; assay type: cell-based; settings: ATCC25922, at 32 µg/mL concentration, read-out: growth inhibition % Ec (E. coli)
Method: as §1

[9] = system: Klebsiella pneumonia (ATCC 700603); experiment: as above; assay type: cell-based; settings: Klebsiella pneumoniae, ATCC700603; at 32 µg/mL concentration; read-out: growth inhibition % Kp (K. pneumoniae)
Method: as §1

[10] = system: Pseudomonas aeruginosa (ATCC 27853); experiment: as above; assay type: cell-based; settings: ATCC27853, at 32 µg/mL concentration, read-out: growth inhibition % Pa (P. aeruginosa)
Method: as §1

[11] = system: methicillin-resistant Staphylococcus aureus (ATCC 43300); experiment: as above; assay type: cell-based; settings: ATCC 43300 / MRSA, at 32 µg/mL concentration, read-out: growth inhibition % Sa (MRSA)
Method: as §1

[12] = system: Candida albicans (ATCC 90028); experiment: Antifungal screening (CO-ADD), growth inhibition at single concentration; assay type: cell-based; settings: ATCC90028, at 32 µg/mL concentration, read-out: growth inhibition % Ca (C. albicans)
Method: as §1

[13] = target: T1, Ovine COX-1 (Ovis aries, UniProt P05979); experiment: In vitro COX inhibition colorimetric assay; assay type: biochemical
T1 construct: purchased Cayman Chemical, Ann Arbor, MI, USA 760111
T1 sequence (P05979 25-600): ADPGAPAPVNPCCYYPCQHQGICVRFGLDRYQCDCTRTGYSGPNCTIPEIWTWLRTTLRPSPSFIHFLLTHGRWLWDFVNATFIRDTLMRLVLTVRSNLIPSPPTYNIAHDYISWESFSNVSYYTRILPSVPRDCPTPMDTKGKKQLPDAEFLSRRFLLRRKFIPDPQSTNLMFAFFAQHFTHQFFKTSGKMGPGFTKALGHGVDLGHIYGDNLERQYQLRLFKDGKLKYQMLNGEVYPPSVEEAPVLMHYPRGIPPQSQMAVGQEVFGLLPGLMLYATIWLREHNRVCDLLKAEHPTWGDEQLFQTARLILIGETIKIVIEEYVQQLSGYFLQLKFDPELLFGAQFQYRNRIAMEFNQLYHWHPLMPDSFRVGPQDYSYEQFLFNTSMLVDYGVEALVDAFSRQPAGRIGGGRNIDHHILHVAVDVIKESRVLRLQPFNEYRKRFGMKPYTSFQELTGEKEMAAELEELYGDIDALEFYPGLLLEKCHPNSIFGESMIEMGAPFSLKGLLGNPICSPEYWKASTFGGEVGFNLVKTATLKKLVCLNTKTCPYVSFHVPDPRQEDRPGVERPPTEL

[14] = system: human recombinant COX-2; experiment: In vitro COX inhibition colorimetric assay; assay type: biochemical; settings: COX-1 IC50/COX-2 IC50
[15] = system: carrageenan-induced rat paw edema; experiment: Carrageenan-induced rat paw edema assay; assay type: in vivo; settings: for Edema thickness (mm) ± SEM: n = 4
Method: Pretreatment of rats with compounds 7a–k, 8a–c, and 9a–c before injection with carrageenan in rat paw which induces inflammation and then the percentage of paw edema reduction was measured after certain hours according to previously reported procedures.

IC50 [13] [µM]	melting point [°C]	Compound	inhibition at 32 µg/mL [7] [%]	inhibition at 32 µg/mL [9] [%]	inhibition at 32 µg/mL [10] [%]	inhibition at 32 µg/mL [11] [%]	inhibition at 32 µg/mL [12] [%]	Selectivity index (SI) [14]	Edema inhibition % ([15]; 1 h) [%]	Edema thickness (mm) ± SEM ([15]; 1 h) [mm]	Edema inhibition % ([15]; 3 h) [%]	Edema thickness (mm) ± SEM ([15]; 3 h) [mm]	Edema inhibition % ([15]; 6 h) [%]	Edema thickness (mm) ± SEM ([15]; 6 h) [mm]	also measured
		C[C@@H]1[C@H](O)[C@@H](C)/C=C/C=C/C=C/C=C/C=C/C=C/C=C/[C@H](O[C@@H]2O[C@H](C)[C@@H](O)[C@H](N)[C@@H]2O)C[C@@H]2O[C@](O)(C[C@@H](O)C[C@@H](O)[C@H](O)CC[C@@H](O)C[C@@H](O)CC(=O)O[C@H]1C)C[C@H](O)[C@H]2C(=O)O [Amphotericin B, amphotericin B, reference compound]													MIC [1]: 1.56 µg/mL (≈ 1.69 µM); MIC [2]: 1.56 µg/mL (≈ 1.69 µM)
		CO/N=C(\C(=O)N[C@@H]1C(=O)N2C(C(=O)O)=C(CSc3nc(=O)c(=O)[nH]n3C)CS[C@H]12)c1csc(N)n1 [Ceftriaxone, ceftriaxone, reference compound]													MIC [3]: 32 µg/mL (≈ 57.7 µM); MIC [4]: 0.125 µg/mL (≈ 0.225 µM); MIC [5]: 32 µg/mL (≈ 57.7 µM); MIC [6]: 32 µg/mL (≈ 57.7 µM)
11.4	203 to 204	CS(=O)(=O)c1ccc(-c2[nH]c3ccccc3c2C=NNc2ccc(S(N)(=O)=O)cc2)cc1 [Compound 7c, 4-(2-((2-(4-(Methylsulfonyl)phenyl)-1H-indol-3-yl)methylene)hydrazinyl)benzene sulfonamide]	43.3	12.8	11.3	21.9	4.13	103.7 and 103.72	62.7	0.978 ± 0.071	81.2	0.419 ± 0.028	82.5	0.331 ± 0.011	inhibition at 32 µg/mL [8]: 3.17%
8.24	151 to 153	Cc1ccc(NN=Cc2c(-c3ccc(S(C)(=O)=O)cc3)[nH]c3ccc(F)cc23)cc1 [Compound 7k, 5-Fluoro-2-(4-(methylsulfonyl)phenyl)-3-((2-(p-tolyl)hydrazono)methyl)-1H-indole]	31.4	8.77	2.23	28.2	1.79	39.20	55.7	1.162 ± 0.088	69.1	0.689 ± 0.011	66.3	0.638 ± 0.051	
9.41	202 to 204	CS(=O)(=O)c1ccc(-c2[nH]c3ccc(F)cc3c2-c2nc3cc(Cl)ccc3[nH]2)cc1 [Compound 8b, 5-Chloro-2-(5-fluoro-2-(4-(methylsulfonyl)phenyl)-1H-indol-3-yl)-1H-benzo[d] imidazole]	22.4	6.56	14.5	11.3	13.2	62.73	52.1	1.256 ± 0.074	68.1	0.712 ± 0.066	76.2	0.451 ± 0.013	
9.42	226 to 228	CS(=O)(=O)c1ccc(-c2[nH]c3ccc(F)cc3c2C=NO)cc1 [Compound 9b, 5-Fluoro-2-(4-(methylsulfonyl)phenyl)-1H-indole-3-carbaldehyde oxime]	33.3	9.23	7.9	10.3	2.47	44.85	66.2		80.5	0.700 ± 0.024	73.4	0.726 ± 0.055	
